Reference: US20050158412A1, “Type II diabetes” (priority 2004, published 2005)

Target: T1, Aldose Reductase (Rattus norvegicus, UniProt P07943)
T1 construct: Aldose Reductase was isolated from Rat lens; from tissue; host or cells: rat lens
Assay: Aldose Reductase enzyme assay
Type: biochemical
Settings: Wistar rat lens enzyme
Method: Experiments were conducted to test the effects of Morinda citrifolia products on Aldose Reductase. Aldose Reductase is an enzyme that is highly expressed in the eye (lens) of diabetic patients. High expression of Aldose Reductase may lead to blindness. Quantitation of Aldose Redutase activity was achieved by utilizing DL-Glyceraldehyde as a substrate. DL-Glyceraldehyde reacts with NADPH to form NADP+. A spectrophotometer was utilized to quantitiate levels of NADPH. Aldose Reductase was isolated from Rat lens. Quercertin was utilized as a reference compound. Methods employed in this study were adapted from the scientific literature to maximize reliability and reproducibility. […] Biochemical assay results are presented as the percent inhibition of specific binding or activity throughout the report. All other results are expressed in terms of that assay's quantitation method. For primary assays, only the lowest concentration with a significant response judged by the assays' criteria, is shown in this summary.

## O=c1c(O)c(-c2ccc(O)c(O)c2)oc2cc(O)cc(O)c12 [Quercetin]
conc. 1%
  % INH. Aldose Reductase: 77%
conc. 5%
  % INH. Aldose Reductase: 77%
